Test results taken from publication PMC8997437, “Apelin Resistance Contributes to Muscle Loss during Cancer Cachexia in Mice” (Cancers, 2022).
“Also recorded” adds a separate entry of the source.

Tests used:
[1] = test system: C2C12 myotubes; assay: Myotube diameter measurement (dexamethasone-induced atrophy); type: cell-based, mouse; settings: four day-differentiated myotubes, 24 h; for protection of myotube diameter from dexamethasone-induced atrophy: 10 μM dexamethasone plus 10 nM peptide, n = 261–297
Description: C2C12 (ATCC, Manassas, VA, USA), a myoblast cell line from the C3H mouse strain, was grown in DMEM (Dulbecco’s Modified Eagle’s Medium, Gibco, Waltham, MA, USA) with fetal bovine serum (FBS) (Euroclone, Pero, Italy) and 2 mM L-glutamine, (BioWest, Nuaillè, France) and maintained in culture at 37 °C with 5% CO2. Myoblasts differentiate into myotubes when they reached 80% confluence and were cultured for four days in DMEM, 2 mM L-glutamine, horse serum (HS) (Euroclone), at 37 °C and 8% CO2. The differentiation medium was changed every two days.
Pictures of myotubes were acquired with an Olympus Microscope IX71 (10× magnification, 10× ocular lens, Olympus, Shinjuku, Japan) with Cell F (2.6 Build1210, Olympus) imaging software for Life Science microscopy (Olympus Soft Imaging solution GmbH, Munster, Germany). Myotube diameters were measured in blind conditions using ImageJ software (National Institutes of Health, Bethesda, MA, USA). For each photo 10–11 myotubes were measured, calculating the mean of three diameters per myotube, for a total of at least 100 cells per condition.
Four day-differentiated myotubes were exposed for 24 h to vehicle (Ctrl) or 10 μM dexamethasone (Dexa) and representative brightfield images are shown. […] We measured in blind the diameter of four day-differentiated myotubes exposed for 24 h to vehicle or 10 μM Dexamethasone (DEXA) in combination with vehicle or 10 nM apelin peptides of different lengths. […] Kruskal–Wallis test, **** p ≤ 0.0001, n = 261–297.

[2] = test system: cAMP-responsive elements (CRE); assay: CRE-luciferase (cAMP) reporter assay in transfected myoblasts, forskolin induction; type: cell-based, mouse; settings: 50 μM forskolin, 5 h
Text: To test whether D-apelin still binds APJ, ultimately lowering cAMP levels, we transfected myoblasts with a reporter plasmid with the gene for FLuc under the control of cAMP-responsive elements (CRE). […] As expected, forskolin induced the CRE-related bioluminescent signal more than 20-fold (Figure 4C).

[3] = test system: C2C12 myotubes; assay: Total protein content of myotubes; type: cell-based, mouse; settings: 10 μM dexamethasone, n = 6
Description: Total proteins were extracted from myotubes and muscles and quantitated as in [31]. Proteins were separated by electrophoresis on 4–20% sodium dodecyl sulfate-polyacrylamide gel electrophoresis (SDS-PAGE) (Bio-Rad, Hercules, CA, USA) and transferred to a polyvinylidene difluoride membrane (GE Healthcare, Chicago, IL, USA), which was then saturated for 2 h at RT with 5% bovine serum albumin (BSA) or milk in TBS-T buffer (20 mM Tris, 150 mM NaCl and 0.1% Tween-20) (Sigma). […] Band intensities were analyzed using ImageJ software.

[4] = test system: MuRF1 promoter; assay: MuRF1 promoter-Firefly luciferase reporter assay in myoblasts; type: cell-based, mouse; settings: 10 μM dexamethasone, 24 h, normalised to RLuc, n = 12
Description: We used C2C12 myoblasts grown in a 24-well plate and transfected with pLKO or preproapelin-expressing plasmids with murine MuRF1 promoter-FLuc plasmid, and pRL-TK plasmid (Promega) using Lipofectamine 2000 (Life Technologies Europe BV, Carlsbad, CA, USA). The next day, they were treated with vehicle or 10 μM dexamethasone for 24 h. Luciferase activities were measured using the Dual-Luciferase Reporter Assay System (Promega) and a luminometer (Glomax 20/20 single tube luminometer, Promega).
Myoblasts were transfected with a plasmid in which Firefly luciferase (FLuc) is under the control of a MuRF1 promoter, with another for Renilla luciferase (RLuc), under the control of thymidine kinase promoter to normalize the data (ratio 50:1) and with the empty vector pLKO, as control, or a preproapelin-expressing plasmid (Apln). After 24 h, myoblasts were treated with vehicle or with 10 μM Dexa for 24 h. […] Ordinary one-way ANOVA, ** p ≤ 0.01, **** p ≤ 0.0001, n = 12.

[5] = test system: MuRF1, atrogin-1 and apelin mRNA in myotubes; assay: Q-PCR of atrophy-related genes in myotubes; type: cell-based, mouse; settings: 10 μM Dexa, 24 h, TBP housekeeping, n = 6
Description: Total RNA was isolated from cells or muscles with QIAzol Lysis Reagent (Qiagen, Hilden, Germany) and miRNeasy Kit (Qiagen), as in [31]. RNA concentration and purity were measured in a spectrophotometer (NanoDrop 1000, ThermoFisher Scientific, Waltham, MA, USA).
mRNA/μg in muscle was analyzed using TaqMan reverse transcription reagents (Life Technologies) or SYBR Green (Qiagen). β-Glucuronidase (GUSB), or Tata binding protein (TBP), or Importin 8 (IPO8), or 18S ribosomal RNA (18S) were used as housekeeping genes (HK). To normalize for three HK, we used the ratio between the arithmetic average and the geometric average of the ng of cDNA of each gene, as described in [32].
TBP was used as housekeeping gene.

[6] = test system: APJ; settings: cited from earlier work

apelin 36: apelin isoform of 36 amino acids binding APJ (Tocris) (LVQPRGSRNGPGPWQGGRRKFRRQRPRLSHKGPMPF; Apelin-36; UniProt Q9ULZ1 42-77, looked up)
effect of peptide alone on myotube diameter ([1]; 10 nM peptide with vehicle): reduced myotube diameters | protection of myotube diameter from dexamethasone-induced atrophy [1]: Unlike apelin 36, apelin 13 fully protects

C=C[C@@]1(C)CC(=O)[C@]2(O)[C@@]3(C)[C@@H](O)CCC(C)(C)[C@@H]3[C@H](O)[C@H](OC(C)=O)[C@@]2(C)O1 [forskolin]
induction of CRE-related bioluminescent signal [2]: more than 20 fold

C[C@@H]1C[C@H]2[C@@H]3CCC4=CC(=O)C=C[C@]4(C)[C@@]3(F)[C@@H](O)C[C@]2(C)[C@@]1(O)C(=O)CO [dexamethasone, Dexamethasone]
reduction of total protein content [3]: about 25% | increase of FLuc expression under MuRF1 promoter [4]: ~15 fold | apelin expression (mRNA) [5]: halved | increase of MuRF1 expression (mRNA) [5]: about 3 fold | increase of atrogin-1 expression (mRNA) [5]: 3 fold

[Pyr1]-Apelin 13 [L-apelin 13]
protection of myotube diameter from dexamethasone-induced atrophy [1]: fully protects myotubes from dexamethasone-induced atrophy; also recorded: fully preserved myotube diameter | affinity for APJ [6]: nanomolar affinity
